Laboratory results: ChEMBL document CHEMBL3797052 (Eur J Med Chem, 2016)

Key:
Format in all cases: functional
786-0 = experiment: Antiproliferative activity against human 786-0 cells assessed as growth inhibition after 48 hrs by sulforhodamine B assay; conditions: 786-0, 48 h
[1] = Antiproliferative activity against human HOP62 cells assessed as cell growth at 10^-4 M after 48 hrs by sulforhodamine B assay; conditions: HOP-62, 48 h, read-out: Activity
ACHN = experiment: Antiproliferative activity against human ACHN cells assessed as cell growth at 10^-7 M after 48 hrs by sulforhodamine B assay; conditions: read-out: Activity
[2] = Antiproliferative activity against human HOP92 cells assessed as cell growth at 10^-7 M after 48 hrs by sulforhodamine B assay; conditions: HOP-92, 48 h, read-out: Activity
[3] = Antiproliferative activity against human HCT15 cells assessed as cell growth at 10^-4 M after 48 hrs by sulforhodamine B assay; conditions: HCT-15, 48 h, read-out: Activity
SK-MEL-5 [4] = experiment: Antiproliferative activity against human SK-MEL-5 cells assessed as cell growth at 10^-6 M after 48 hrs by sulforhodamine B assay; conditions: SK-MEL-5, 48 h, read-out: Activity
T47D = experiment: Antiproliferative activity against human T47D cells assessed as cell growth at 10^-7 M after 48 hrs by sulforhodamine B assay; conditions: read-out: Activity
EKVX = experiment: Antiproliferative activity against human EKVX cells assessed as cell growth at 10^-6 M after 48 hrs by sulforhodamine B assay; conditions: read-out: Activity
[5] = Antiproliferative activity against human SF268 cells assessed as cell growth at 10^-6 M after 48 hrs by sulforhodamine B assay; conditions: SF-268, 48 h, read-out: Activity
MCF7 = experiment: Antiproliferative activity against human MCF7 cells assessed as cell growth at 10^-6 M after 48 hrs by sulforhodamine B assay; conditions: MCF7, 48 h, read-out: Activity
NCI-H322M = experiment: Antiproliferative activity against human NCI-H322M cells assessed as cell growth at 10^-6 M after 48 hrs by sulforhodamine B assay; conditions: read-out: Activity
SN12C [6] = experiment: Antiproliferative activity against human SN12C cells assessed as cell growth at 10^-6 M after 48 hrs by sulforhodamine B assay; conditions: read-out: Activity
[7] = Antiproliferative activity against human OVCAR3 cells assessed as cell growth at 10^-6 M after 48 hrs by sulforhodamine B assay; conditions: OVCAR-3, 48 h, read-out: Activity
[8] = Antiproliferative activity against human NCI-ADR-RES cells assessed as cell growth at 10^-7 M after 48 hrs by sulforhodamine B assay; conditions: read-out: Activity
[9] = Antiproliferative activity against human UO31 cells assessed as cell growth at 10^-6 M after 48 hrs by sulforhodamine B assay; conditions: UO-31, 48 h, read-out: Activity
SK-MEL-5 [10] = experiment: Antiproliferative activity against human SK-MEL-5 cells assessed as cell growth at 10^-8 M after 48 hrs by sulforhodamine B assay; conditions: SK-MEL-5, 48 h, read-out: Activity
[11] = Antiproliferative activity against human DU145 cells assessed as growth inhibition after 48 hrs by sulforhodamine B assay; conditions: DU-145, 48 h; for CC50: read-out: LC50 (the source's name)
[12] = Antiproliferative activity against human HCT116 cells assessed as growth inhibition after 48 hrs by sulforhodamine B assay; conditions: HCT-116, 48 h
NCI-H522 = experiment: Antiproliferative activity against human NCI-H522 cells assessed as growth inhibition after 48 hrs by sulforhodamine B assay; conditions: NCI-H522, 48 h
[13] = Antiproliferative activity against human OVCAR5 cells assessed as cell growth at 10^-4 M after 48 hrs by sulforhodamine B assay; conditions: OVCAR-5, 48 h, read-out: Activity
NCI-H226 = experiment: Antiproliferative activity against human NCI-H226 cells assessed as cell growth at 10^-6 M after 48 hrs by sulforhodamine B assay; conditions: NCI-H226, 48 h, read-out: Activity
[14] = Antiproliferative activity against human HL-60(TB) cells assessed as cell growth at 10^-8 M after 48 hrs by sulforhodamine B assay; conditions: HL-60, 48 h, read-out: Activity
[15] = Antiproliferative activity against human NCI-ADR-RES cells assessed as growth inhibition after 48 hrs by sulforhodamine B assay
[16] = Antiproliferative activity against human SF295 cells assessed as cell growth at 10^-6 M after 48 hrs by sulforhodamine B assay; conditions: SF-295, 48 h, read-out: Activity
[17] = Antiproliferative activity against human RXF393 cells assessed as cell growth at 10^-8 M after 48 hrs by sulforhodamine B assay; conditions: RXF 393, 48 h, read-out: Activity
M14 = experiment: Antiproliferative activity against human M14 cells assessed as growth inhibition after 48 hrs by sulforhodamine B assay; conditions: M14, 48 h; for CC50: read-out: LC50 (the source's name)
SN12C [18] = experiment: Antiproliferative activity against human SN12C cells assessed as cell growth at 10^-7 M after 48 hrs by sulforhodamine B assay; conditions: read-out: Activity
[19] = Antiproliferative activity against human BT549 cells assessed as cell growth at 10^-7 M after 48 hrs by sulforhodamine B assay; conditions: BT-549, 48 h, read-out: Activity
[20] = Antiproliferative activity against human SKOV3 cells assessed as cell growth at 10^-7 M after 48 hrs by sulforhodamine B assay; conditions: SK-OV-3, 48 h, read-out: Activity
[21] = Antiproliferative activity against human SF268 cells assessed as cell growth at 10^-8 M after 48 hrs by sulforhodamine B assay; conditions: SF-268, 48 h, read-out: Activity
[22] = Antiproliferative activity against human NCI-ADR-RES cells assessed as cell growth at 10^-8 M after 48 hrs by sulforhodamine B assay; conditions: read-out: Activity
[23] = Antiproliferative activity against human RXF393 cells assessed as cell growth at 10^-7 M after 48 hrs by sulforhodamine B assay; conditions: RXF 393, 48 h, read-out: Activity
[24] = Antiproliferative activity against human UO31 cells assessed as cell growth at 10^-4 M after 48 hrs by sulforhodamine B assay; conditions: UO-31, 48 h, read-out: Activity
U-251 = experiment: Antiproliferative activity against human U251 cells assessed as growth inhibition after 48 hrs by sulforhodamine B assay; conditions: U-251, 48 h
SK-MEL-28 = experiment: Antiproliferative activity against human SK-MEL-28 cells assessed as cell growth at 10^-8 M after 48 hrs by sulforhodamine B assay; conditions: SK-MEL-28, 48 h, read-out: Activity
[25] = Antiproliferative activity against human HOP62 cells assessed as growth inhibition after 48 hrs by sulforhodamine B assay; conditions: HOP-62, 48 h
SK-MEL-5 [26] = experiment: Antiproliferative activity against human SK-MEL-5 cells assessed as growth inhibition after 48 hrs by sulforhodamine B assay; conditions: SK-MEL-5, 48 h; for CC50: read-out: LC50 (the source's name)

CNC(=O)c1cc(Oc2ccc3nc(NC(=O)c4cc(C(F)(F)F)cc(C(F)(F)F)c4)sc3c2)ccn1
GI50 (786-0): 2.55 µM | LC50 (786-0): 45.2 µM | TGI (786-0): 8.07 µM | growth at 100 µM [1]: -71% | growth at 0.1 µM (ACHN): 100% | growth at 0.1 µM [2]: 86% | growth at 100 µM [3]: -29% | growth at 1 µM (SK-MEL-5 [4]): 83% | growth at 0.1 µM (T47D): 88% | growth at 1 µM (EKVX): 90% | growth at 1 µM [5]: 79% | growth at 1 µM (MCF7): 87% | growth at 1 µM (NCI-H322M): 52% | growth at 1 µM (SN12C [6]): 96% | growth at 1 µM [7]: 90% | growth at 0.1 µM [8]: 103% | growth at 1 µM [9]: 78% | growth at 0.01 µM (SK-MEL-5 [10]): 95% | GI50 [11]: 3.69 µM | TGI [11]: 15.9 µM | CC50 [11]: 65 µM | GI50 [12]: 3.41 µM | LC50 (concentration killing 50% of the starting cells) [12]: 42.4 µM | TGI [12]: 11.9 µM | GI50 (NCI-H522): 2.82 µM | LC50 (concentration killing 50% of cells) (NCI-H522): 64.1 µM | TGI (NCI-H522): 8.77 µM | growth at 100 µM [13]: -48% | growth at 1 µM (NCI-H226): 101% | growth at 0.01 µM [14]: 92% | GI50 [15]: 3.67 µM | LC50 (concentration killing 50% of cells) [15]: > 100 µM | TGI [15]: 19.1 µM | growth at 1 µM [16]: 83% | growth at 0.01 µM [17]: 95% | GI50 (M14): 3.61 µM | TGI (M14): 19.5 µM | CC50 (M14): > 100 µM | growth at 0.1 µM (SN12C [18]): 101% | growth at 0.1 µM [19]: 86% | growth at 0.1 µM [20]: 91% | growth at 0.01 µM [21]: 93% | growth at 0.01 µM [22]: 102% | growth at 0.1 µM [23]: 94% | growth at 100 µM [24]: -51% | GI50 (U-251): 3.65 µM | LC50 (U-251): 53.6 µM | TGI (U-251): 13.7 µM | growth at 0.01 µM (SK-MEL-28): 97% | GI50 [25]: 3.36 µM | LC50 [25]: 51.6 µM | TGI [25]: 10.8 µM | GI50 (SK-MEL-5 [26]): 1.68 µM | TGI (SK-MEL-5 [26]): 3.63 µM | CC50 (SK-MEL-5 [26]): 7.87 µM

CNC(=O)c1cc(Oc2ccc3nc(NC(=O)Nc4ccc(Cl)c(Cl)c4)sc3c2)ccn1
GI50 (786-0): 2.26 µM | LC50 (786-0): 21.5 µM | TGI (786-0): 5.11 µM | growth at 100 µM [1]: -85% | growth at 0.1 µM (ACHN): 94% | growth at 0.1 µM [2]: 110% | growth at 100 µM [3]: 26% | growth at 1 µM (SK-MEL-5 [4]): 94% | growth at 0.1 µM (T47D): 106% | growth at 1 µM (EKVX): 86% | growth at 1 µM [5]: 95% | growth at 1 µM (MCF7): 84% | growth at 1 µM (NCI-H322M): 84% | growth at 1 µM (SN12C [6]): 102% | growth at 1 µM [7]: 99% | growth at 0.1 µM [8]: 98% | growth at 1 µM [9]: 106% | growth at 0.01 µM (SK-MEL-5 [10]): 99% | GI50 [11]: 2.45 µM | TGI [11]: 6.29 µM | CC50 [11]: > 100 µM | GI50 [12]: 1.88 µM | LC50 (concentration killing 50% of the starting cells) [12]: 11.5 µM | TGI [12]: 4.35 µM | GI50 (NCI-H522): 4.09 µM | LC50 (concentration killing 50% of cells) (NCI-H522): > 100 µM | TGI (NCI-H522): > 100 µM | growth at 1 µM (NCI-H226): 109% | growth at 0.01 µM [14]: 102% | GI50 [15]: 2.3 µM | LC50 (concentration killing 50% of cells) [15]: > 100 µM | TGI [15]: 5.09 µM | growth at 1 µM [16]: 79% | growth at 0.01 µM [17]: 99% | GI50 (M14): 2.13 µM | TGI (M14): 4.74 µM | CC50 (M14): > 100 µM | growth at 0.1 µM (SN12C [18]): 107% | growth at 0.1 µM [19]: 104% | growth at 0.1 µM [20]: 115% | growth at 0.01 µM [21]: 96% | growth at 0.01 µM [22]: 97% | growth at 0.1 µM [23]: 101% | growth at 100 µM [24]: -72% | GI50 (U-251): 1.83 µM | LC50 (U-251): 6.53 µM | TGI (U-251): 3.46 µM | growth at 0.01 µM (SK-MEL-28): 95% | GI50 [25]: 2.24 µM | LC50 [25]: 7.15 µM | TGI [25]: 4 µM | GI50 (SK-MEL-5 [26]): 2.24 µM | TGI (SK-MEL-5 [26]): 5.58 µM | CC50 (SK-MEL-5 [26]): > 100 µM
